From patent US9233107B2, “Compositions and methods for the treatment of progressive multifocal leukoencephalopathy (PML)” (Biogen MA Inc., priority 2007, dated 2016)
Like-named read-outs stand apart in the source and are kept apart here.

What was measured:
JCV strain Mad1/SVEΔ = test: microbe, parasite or virus in culture; type: cell-based, JC polyomavirus (JCV); details: for % Inhibition (total #JCV+) @10 uM: SV40 transformed glial cells, Mad-1/SVEΔ JCV; for % Inhibition (% JCV+) @10 uM: infection rate, JCV+ cells normalised to total cells
Description: (§1) SV40 transformed glial cells were seeded in 10% FBS media. The cells were seeded at 2000 cells per well in 75 μl of media per well. On day 2, the media was removed and replaced by 35 μl of a 1× concentrated drug aliquot combined with a 100× diluted JCV Turbo aliquot in 35 μl of 2% FBS media (JCV Turbo is a hybrid Mad-1/SVEΔ virus constructed by insertion of the regulatory region of SV40 into the regulatory region of the Mad-1 strain of JCV (Mad-1/SVE), Vacante et al., Virology 1989, 170: 353-361). The cells were incubated for an hour, after which another 65 uL aliquot of 1× concentrated drug in 2% FBS was added. On day 5 the cells were stained with DAPI (for total cell number) and with a mouse monoclonal antibody against SV40 VP1, which cross reacts with the JCV VP1 protein. […] The information is tabulated as % inhibition (as measured by the number and percentage of JCV positive cells).
(§2) JCV Infectivity Assay: SVG-A cells were seeded at 2,000 cells/well/0.075 ml of culture media in 96 flat-bottom well plate (Corning, N.Y.). The next day compounds were prepared in assay medium (2% heat-inactivated fetal bovine serum, 4 mM L-glutamine, 1×MEM). A master viral plate was prepared by mixing equal volumes of [2×] compound and [2×] diluted virus for the final 1× concentration of the compound and the virus. The plate containing cells was gently inverted and shaken to remove media. From the master plate, 0.035 ml compound/virus was added to designated wells. The cells were incubated with the compound/virus mixture for 60 minutes in a humidified 37° C. CO2 incubator. At that time final concentration of the drug in media was added to designated wells to bring the final volume up to 0.1 ml/well. The plates were incubated for an additional three days, the cells were then washed once with 1×PBS, and fixed in 2% paraformaldehyde/1×PBS for 30 minutes at room temperature. The fixative was removed and the cells were solubilized with 0.5% Triton X100 in PBS for an additional 30 minutes. Infection by Mad-1/SVEΔ virus was visualized by staining with PAB597, a monoclonal antibody against the major capsid protein VP1, the cells were incubated with 0.05 ml of PAB597 (2 μg/ml in 1×PBS) for 60 minutes at 37° C. Following a wash step with 1×PBS, primary antibody was detected with an Alexa-Fluor 488-labeled goat anti-mouse secondary antibody at 1:100 dilution in 1×PBS, cells were counterstained with DAPI at 1 μg/ml (0.05 ml/well) for 30 minutes at 37° C. Cells were washed with 1×PBS and 0.1 ml 1×PBS was added to cells. Field images of each well were acquired and analyzed using the Cellomics ArrayScan (Thermo Scientific Inc, Waltham, Mass.) using the Target Activation software. […] The cells are seeded at 4,000 cells/well/0.075 ml of culture media in 96 flat-bottom well plate (Corning). The culture media is used for the infection. The length of the infection is six to ten days (instead of the three days for SVG-A cells).
Calculations: The rate of JCV infection was calculated by normalizing the number of JCV infected cells by the total number of nucleated cells as % JCV^+ cells=((total # VP1^+ cells)/(total # DAPI^+ cells))*100%. The % of viral inhibition by a compound was calculated using a JCV infection rate instead of using total number of JCV infected cells (e.g., VP1^+ cells).

SVG-A cells = test: Total cell number (DAPI+ events) / cytotoxicity in the JCV infectivity assay; details: for inhibition at 10 µM: Homo sapiens, SVG-A, read-out: % Inhibition total Cell Number @10 uM; for % Inhibition total Cell Number @10 uM: cytotoxicity, DAPI count
Description: as §1, §2
The primary assay employed an SVG-A cell line and JCV Mad1/SVEΔ viral strain.

[1] = JC polyomavirus, Glial cell, read-out: % Inhibition (total #JCV+) @10 uM
[2] = JC polyomavirus, SVG-A, read-out: % Inhibition (% JCV+) @10 uM

Compound	inhibition at 10 µM (JCV strain Mad1/SVEΔ; [1]) [%]	inhibition at 10 µM (JCV strain Mad1/SVEΔ; [2]) [%]	inhibition at 10 µM (SVG-A cells) [%]	other results
CN(CCOc1ccc(CC2SC(=O)NC2=O)cc1)c1ccccn1 (centres unmarked) [ROSIGLITAZONE]	22	23	-1	
COC(=O)c1c(C)c2c(c(C)c1O)OC(=O)c1c(C)c(Cl)c(O)c(Cl)c1O2 [LEOIDIN]	14	21	-9	
POLYMYXIN B SULFATE				% Inhibition (total #JCV+) @10 uM (JCV strain Mad1/SVEΔ): 36%; % Inhibition (% JCV+) @10 uM (JCV strain Mad1/SVEΔ): 41%; % Inhibition total Cell Number @10 uM (SVG-A cells): −8%
O=C(O)c1ccccc1Nc1cccc(C(F)(F)F)c1 [FLUFENAMIC ACID]	37	26	14	
DEHYDROABIETAMIDE				% Inhibition (total #JCV+) @10 uM (JCV strain Mad1/SVEΔ): 40%; % Inhibition (% JCV+) @10 uM (JCV strain Mad1/SVEΔ): 33%; IC50 (JCV strain Mad1/SVEΔ; anti-JCV, inhibition of % JCV infected cells by 50%, full dose response, read-out: IC50): 13 µM; CC50 (SVG-A cells): > 40 µM; % Inhibition total Cell Number @10 uM (SVG-A cells): 11%
COc1cc(OC)c(C(C)=O)c(OC)c1 [METHYLXANTHOXYLIN]				% Inhibition (total #JCV+) @10 uM (JCV strain Mad1/SVEΔ): 33%; % Inhibition (% JCV+) @10 uM (JCV strain Mad1/SVEΔ): 30%; % Inhibition total Cell Number @10 uM (SVG-A cells): 5%
CCCCOc1cc(CC2CNC(=O)N2)ccc1OC (centres unmarked) [4-(3-BUTOXY-4-METHOXYBENZYL)IMIDAZOLIDIN-2-ONE]	48	42	12	
c1ccc2[nH]c(-c3cscn3)nc2c1 [THIABENDAZOLE]	19	22	-1	
COc1ccc(C(=O)c2ccccc2O)c(O)c1 [DIOXYBENZONE, 2,2′-Dihydroxy-4-methoxybenzophenone]	55	49	11	
O=C(O)c1cc([N+](=O)[O-])ccc1NCCCc1ccccc1 [5-NITRO-2-PHENYLPROPYLAMINOBENZOIC ACID]				% Inhibition (total #JCV+) @10 uM (JCV strain Mad1/SVEΔ): 14%; % Inhibition (% JCV+) @10 uM (JCV strain Mad1/SVEΔ): 21%; % Inhibition total Cell Number @10 uM (SVG-A cells): −9%
CCOc1nc2cccc(C(=O)OC(C)OC(=O)OC3CCCCC3)c2n1Cc1ccc(-c2ccccc2-c2nn[nH]n2)cc1 (centres unmarked) [CANDESARTAN CILEXTIL]				% Inhibition (total #JCV+) @10 uM (JCV strain Mad1/SVEΔ): 54%; % Inhibition (% JCV+) @10 uM (JCV strain Mad1/SVEΔ): 44%; % Inhibition total Cell Number @10 uM (SVG-A cells): 19%
O=c1oc2ccccc2c(O)c1Cc1c(O)c2ccccc2oc1=O [DICUMAROL]	36	35	3	
CN1CCCN=C1/C=C/c1cccs1 [PYRANTEL PAMOATE]	48	42	12	
COc1ccc(-c2cc(=O)c3c(O)c(OC)c(OC)c(OC)c3o2)cc1OC [DEMETHYLNOBILETIN]				% Inhibition (total #JCV+) @10 uM (JCV strain Mad1/SVEΔ): 38%; % Inhibition (% JCV+) @10 uM (JCV strain Mad1/SVEΔ): 20%; % Inhibition total Cell Number @10 uM (SVG-A cells): 20%
NCCOB(c1ccccc1)c1ccccc1 [AMINOETHOXYDIPHENYLBORANE]	25	21	3	
O=C(O)Cc1ccccc1Nc1c(Cl)cccc1Cl [DICLOFENAC SODIUM]	44	31	18	IC50 (JCV strain Mad1/SVEΔ; JC polyomavirus, SVG-A): 8.3 µM; CC50 (SVG-A cells; human, 3 days): 30.5 µM
C=C[C@@H]1C2=CCOC(=O)C2=CO[C@H]1O[C@@H]1O[C@H](CO)[C@@H](O)[C@H](O)[C@H]1O [GENTIOPICROSIDE]	32	22	11	
Nc1ccn(C[C@@H](CO)OCP(=O)(O)O)c(=O)n1 [cidofovir]				percent inhibition of infection rate (% JCV+ cells), in words (JCV strain Mad1/SVEΔ; FIG. 3D, SVG-A cells): not significant; inhibition of total number of cells in culture, in words (SVG-A cells): inhibited the total number of cells in culture to the same degree
CC(C)=CCc1c(O)cc2oc(C)cc(=O)c2c1O [PEUCENIN]	21	27	-7	
COc1cc2c(cc1-c1coc3c4c(c(OC)cc3c1=O)OC(C)(C)C=C4)OCO2 [ICHTHYNONE]	34	24	14	
Nc1nc2ccc(OC(F)(F)F)cc2s1 [RILUZOLE]	16	26		
